ChEMBL document CHEMBL4321795, “Metabolism by Aldehyde Oxidase: Drug Design and Complementary Approaches to Challenges in Drug Discovery” (J Med Chem, 2019)
Blank lines part the entries; values can stand above or below the compound they belong to.

Key:
Cytochrome P450 3A4 [1] = biological target: T1, Cytochrome P450 3A4 (Homo sapiens, UniProt P08684); experiment: Substrate activity at human CYP3A4 assessed as increase in midazolam AUC relative to control; assay type: ADME
Cytochrome P450 3A4 [2] = biological target: T1, Cytochrome P450 3A4; experiment: Substrate activity at human CYP3A4 assessed as increase in atorvastatin AUC relative to control; assay type: ADME
Cytochrome P450 3A4 [3] = biological target: T1, Cytochrome P450 3A4; experiment: Substrate activity at human CYP3A4 assessed as increase in methyl-prednisolone AUC relative to control; assay type: ADME
[4] = Clearance in human plasma; assay type: ADME, cell-free
[5] = Oral bioavailability in human; assay type: ADME, organism-based; details: in vivo
Aldehyde oxidase [6] = biological target: T2, Aldehyde oxidase (Homo sapiens, UniProt Q06278); experiment: Substrate activity at aldehyde oxidase in human liver cytosol assessed as enzyme-mediated drug uptake by mass spectrophotometric analysis; assay type: ADME, subcellular
T2 sequence (Q06278 whole entry): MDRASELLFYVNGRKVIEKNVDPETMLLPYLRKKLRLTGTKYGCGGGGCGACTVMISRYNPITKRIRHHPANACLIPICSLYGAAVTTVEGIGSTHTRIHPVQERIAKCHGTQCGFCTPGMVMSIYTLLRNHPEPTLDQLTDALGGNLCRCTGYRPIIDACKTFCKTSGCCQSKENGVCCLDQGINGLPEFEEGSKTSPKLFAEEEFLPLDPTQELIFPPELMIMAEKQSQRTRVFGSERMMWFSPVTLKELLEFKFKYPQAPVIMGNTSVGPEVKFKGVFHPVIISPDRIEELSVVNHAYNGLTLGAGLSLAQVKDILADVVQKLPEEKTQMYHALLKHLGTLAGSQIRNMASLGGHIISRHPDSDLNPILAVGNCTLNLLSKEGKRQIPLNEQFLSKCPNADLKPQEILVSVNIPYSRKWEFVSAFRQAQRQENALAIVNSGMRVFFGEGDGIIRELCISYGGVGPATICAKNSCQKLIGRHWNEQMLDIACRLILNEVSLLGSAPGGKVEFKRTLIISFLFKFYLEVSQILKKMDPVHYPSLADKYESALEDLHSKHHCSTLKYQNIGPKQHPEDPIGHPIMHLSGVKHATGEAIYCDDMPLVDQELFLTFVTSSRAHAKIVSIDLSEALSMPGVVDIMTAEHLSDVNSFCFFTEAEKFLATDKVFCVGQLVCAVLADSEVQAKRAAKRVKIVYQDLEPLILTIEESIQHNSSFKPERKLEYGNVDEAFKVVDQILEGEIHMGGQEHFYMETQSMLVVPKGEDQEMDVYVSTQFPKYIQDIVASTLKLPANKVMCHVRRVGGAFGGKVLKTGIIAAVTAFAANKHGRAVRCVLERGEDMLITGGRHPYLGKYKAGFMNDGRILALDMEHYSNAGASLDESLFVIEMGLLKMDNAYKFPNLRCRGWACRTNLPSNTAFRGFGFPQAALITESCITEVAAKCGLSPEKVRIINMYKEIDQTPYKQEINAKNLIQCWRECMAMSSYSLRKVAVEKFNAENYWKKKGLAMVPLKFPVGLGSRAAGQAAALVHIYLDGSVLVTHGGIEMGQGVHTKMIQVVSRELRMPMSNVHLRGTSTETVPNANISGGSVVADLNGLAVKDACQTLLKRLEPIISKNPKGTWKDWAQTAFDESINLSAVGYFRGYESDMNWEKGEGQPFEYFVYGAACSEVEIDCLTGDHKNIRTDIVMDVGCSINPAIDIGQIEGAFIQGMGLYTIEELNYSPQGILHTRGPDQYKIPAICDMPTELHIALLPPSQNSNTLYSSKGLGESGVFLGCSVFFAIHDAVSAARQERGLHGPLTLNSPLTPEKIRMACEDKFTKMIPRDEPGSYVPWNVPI

Aldehyde oxidase 1 [7] = biological target: T3, Aldehyde oxidase 1 (Rattus norvegicus, UniProt Q9Z0U5); experiment: Substrate activity at aldehyde oxidase in rat liver cytosol assessed as enzyme-mediated drug uptake by mass spectrophotometric analysis; assay type: ADME, subcellular
T3 sequence (Q9Z0U5 whole entry): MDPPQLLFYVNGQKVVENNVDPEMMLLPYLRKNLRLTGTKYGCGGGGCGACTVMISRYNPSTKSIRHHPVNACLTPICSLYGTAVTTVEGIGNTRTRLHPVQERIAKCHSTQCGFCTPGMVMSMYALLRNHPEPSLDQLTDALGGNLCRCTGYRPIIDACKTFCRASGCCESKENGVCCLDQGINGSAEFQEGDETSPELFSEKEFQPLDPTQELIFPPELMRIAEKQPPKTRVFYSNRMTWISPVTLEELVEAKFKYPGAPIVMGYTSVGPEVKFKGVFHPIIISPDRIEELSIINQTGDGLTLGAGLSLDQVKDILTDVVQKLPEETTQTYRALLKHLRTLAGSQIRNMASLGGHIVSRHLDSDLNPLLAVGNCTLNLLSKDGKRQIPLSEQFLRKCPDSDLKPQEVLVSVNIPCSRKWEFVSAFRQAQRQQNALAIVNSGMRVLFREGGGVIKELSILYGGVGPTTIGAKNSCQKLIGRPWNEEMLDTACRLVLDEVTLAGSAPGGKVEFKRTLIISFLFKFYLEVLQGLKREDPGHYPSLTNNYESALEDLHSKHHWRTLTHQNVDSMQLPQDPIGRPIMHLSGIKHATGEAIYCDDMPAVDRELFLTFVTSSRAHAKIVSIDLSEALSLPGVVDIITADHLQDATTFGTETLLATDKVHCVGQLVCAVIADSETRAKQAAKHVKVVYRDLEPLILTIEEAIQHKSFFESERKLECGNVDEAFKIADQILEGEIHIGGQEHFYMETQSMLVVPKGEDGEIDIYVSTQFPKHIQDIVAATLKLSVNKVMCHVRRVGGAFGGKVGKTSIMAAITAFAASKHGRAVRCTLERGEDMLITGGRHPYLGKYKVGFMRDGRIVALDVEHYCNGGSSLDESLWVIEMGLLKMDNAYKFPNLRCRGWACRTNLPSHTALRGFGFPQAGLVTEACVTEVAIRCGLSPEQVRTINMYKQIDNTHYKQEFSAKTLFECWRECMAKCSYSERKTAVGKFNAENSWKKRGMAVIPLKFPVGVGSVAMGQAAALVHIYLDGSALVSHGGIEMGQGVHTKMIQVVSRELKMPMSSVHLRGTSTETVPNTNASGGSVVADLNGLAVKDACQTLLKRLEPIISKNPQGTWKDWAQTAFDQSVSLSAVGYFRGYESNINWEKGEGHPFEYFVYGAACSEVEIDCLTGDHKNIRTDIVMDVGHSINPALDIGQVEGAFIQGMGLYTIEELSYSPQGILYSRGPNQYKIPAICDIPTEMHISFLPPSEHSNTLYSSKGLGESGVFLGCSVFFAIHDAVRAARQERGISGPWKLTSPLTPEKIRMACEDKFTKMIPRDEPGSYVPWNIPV

Aldehyde oxidase 1 [8] = biological target: T4, Aldehyde oxidase 1 (Cavia porcellus, UniProt H9TB17); experiment: Substrate activity at aldehyde oxidase in guinea pig liver cytosol assessed as enzyme-mediated drug uptake by mass spectrophotometric analysis; assay type: ADME, subcellular
T4 sequence (H9TB17 whole entry): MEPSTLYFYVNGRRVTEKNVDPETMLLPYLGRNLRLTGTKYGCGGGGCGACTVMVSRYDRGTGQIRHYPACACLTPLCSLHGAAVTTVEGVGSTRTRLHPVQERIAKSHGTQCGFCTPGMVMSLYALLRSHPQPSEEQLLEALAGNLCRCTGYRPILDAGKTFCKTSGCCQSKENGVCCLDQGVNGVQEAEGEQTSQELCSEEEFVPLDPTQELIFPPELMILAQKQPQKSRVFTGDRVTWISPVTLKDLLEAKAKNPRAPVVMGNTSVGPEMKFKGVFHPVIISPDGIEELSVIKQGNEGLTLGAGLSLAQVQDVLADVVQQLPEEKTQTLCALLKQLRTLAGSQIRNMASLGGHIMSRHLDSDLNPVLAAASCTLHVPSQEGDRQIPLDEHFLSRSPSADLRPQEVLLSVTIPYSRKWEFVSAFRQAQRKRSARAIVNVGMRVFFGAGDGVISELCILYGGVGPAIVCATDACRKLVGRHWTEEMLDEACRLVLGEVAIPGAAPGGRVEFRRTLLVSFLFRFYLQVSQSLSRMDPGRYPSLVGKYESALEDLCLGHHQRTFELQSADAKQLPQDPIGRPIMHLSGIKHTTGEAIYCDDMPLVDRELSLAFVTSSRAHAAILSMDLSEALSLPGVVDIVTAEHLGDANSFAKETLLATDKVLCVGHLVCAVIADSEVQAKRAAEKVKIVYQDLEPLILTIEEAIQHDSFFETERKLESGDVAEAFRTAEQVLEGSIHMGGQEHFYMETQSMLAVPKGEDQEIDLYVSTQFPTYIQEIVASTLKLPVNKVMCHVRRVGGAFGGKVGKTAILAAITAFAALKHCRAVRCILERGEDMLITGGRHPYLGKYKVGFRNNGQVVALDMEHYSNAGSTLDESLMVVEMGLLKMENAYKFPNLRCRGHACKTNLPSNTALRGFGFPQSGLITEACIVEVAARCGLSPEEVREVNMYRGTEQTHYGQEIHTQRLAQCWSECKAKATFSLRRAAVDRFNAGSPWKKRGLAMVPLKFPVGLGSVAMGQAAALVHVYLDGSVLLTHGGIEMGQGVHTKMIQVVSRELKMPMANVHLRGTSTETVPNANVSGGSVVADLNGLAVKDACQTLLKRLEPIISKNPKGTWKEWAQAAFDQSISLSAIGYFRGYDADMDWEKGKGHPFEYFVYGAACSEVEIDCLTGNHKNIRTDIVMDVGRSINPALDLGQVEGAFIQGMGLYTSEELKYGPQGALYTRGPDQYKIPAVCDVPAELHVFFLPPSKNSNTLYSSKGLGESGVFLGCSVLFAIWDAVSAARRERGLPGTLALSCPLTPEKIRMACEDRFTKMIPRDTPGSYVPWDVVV

Aldehyde oxidase [9] = biological target: T2, Aldehyde oxidase; experiment: Substrate activity at aldehyde oxidase in human liver cytosol assessed as enzyme-mediated drug uptake at 1 uM; assay type: ADME, subcellular
Aldehyde oxidase 1 [10] = biological target: T3, Aldehyde oxidase 1; experiment: Substrate activity at aldehyde oxidase in rat liver cytosol assessed as enzyme-mediated drug uptake at 1 uM; assay type: ADME, subcellular
Aldehyde oxidase 1 [11] = biological target: T4, Aldehyde oxidase 1; experiment: Substrate activity at aldehyde oxidase in guinea pig liver cytosol assessed as enzyme-mediated drug uptake at 1 uM; assay type: ADME, subcellular
Aldehyde oxidase [12] = biological target: T2, Aldehyde oxidase; experiment: Substrate activity at aldehyde oxidase in human hepatocytes assessed as enzyme-mediated drug uptake at 1 uM; assay type: ADME, cell-based

T1 sequence (P08684 whole entry): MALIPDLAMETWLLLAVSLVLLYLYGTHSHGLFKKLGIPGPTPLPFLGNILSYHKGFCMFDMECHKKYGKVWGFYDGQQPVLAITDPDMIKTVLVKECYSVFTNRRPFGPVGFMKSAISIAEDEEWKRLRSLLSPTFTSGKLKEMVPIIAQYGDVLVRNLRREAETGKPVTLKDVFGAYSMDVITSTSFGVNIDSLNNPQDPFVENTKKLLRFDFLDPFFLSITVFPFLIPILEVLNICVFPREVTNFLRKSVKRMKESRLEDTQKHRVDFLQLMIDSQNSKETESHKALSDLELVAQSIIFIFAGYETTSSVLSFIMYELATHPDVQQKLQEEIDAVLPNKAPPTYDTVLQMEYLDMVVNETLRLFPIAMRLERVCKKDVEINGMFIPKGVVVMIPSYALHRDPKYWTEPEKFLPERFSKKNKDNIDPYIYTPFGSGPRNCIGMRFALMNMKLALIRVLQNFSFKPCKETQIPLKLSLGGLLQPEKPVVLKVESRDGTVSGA

fold change (FC) (Cytochrome P450 3A4 [1]): 12
fold change (FC) (Cytochrome P450 3A4 [2]): 2.7
fold change (FC) (Cytochrome P450 3A4 [3]): 4.3
SMILES: CC[C@@](C)(Nc1ccnc(-c2c[nH]c3ncccc23)n1)C(=O)NCC(F)(F)F [DECERNOTINIB]

clearance [4]: 12 mL/min/kg
SMILES: Cn1cc(-c2ccc3nnc(C(F)(F)c4ccc5ncccc5c4)n3n2)cn1 [JNJ-38877605]

bioavailability [5]: 77%
SMILES: Nc1nc2c(ncn2CCC(CO)CO)c(=O)[nH]1 [PENCICLOVIR]

K (Aldehyde oxidase [6]): 4.7 to 5.1
K (Aldehyde oxidase 1 [7]): 4.7 to 5.1
K (Aldehyde oxidase 1 [8]): 4.7 to 5.1
SMILES: c1ccc2cnncc2c1 [PHTHALAZINE]

SMILES: c1ccc2ncccc2c1 [QUINOLINE]
K (Aldehyde oxidase [9]): 3.6 to 6.1
K (Aldehyde oxidase 1 [10]): 3.6 to 6.1
K (Aldehyde oxidase 1 [11]): 3.6 to 6.1

K (Aldehyde oxidase [6]): 4.7 to 5.1
K (Aldehyde oxidase 1 [7]): 4.7 to 5.1
K (Aldehyde oxidase 1 [8]): 4.7 to 5.1
SMILES: c1ccc2nccnc2c1 [QUINOXALINE]

K (Aldehyde oxidase [9]): 3.6 to 6.1
K (Aldehyde oxidase 1 [10]): 3.6 to 6.1
K (Aldehyde oxidase 1 [11]): 3.6 to 6.1
K (Aldehyde oxidase [12]): 1.9
SMILES: N=C(N)NC(=O)c1cnn(-c2cccc3ncccc23)c1C1CC1 [ZONIPORIDE]
